Patent publication US20220411419A1, “SMALL MOLECULE MODULATORS OF MHC-I” (RetroVirox, Inc., priority 2018, published 2022)

What was measured:
[1] = test system: downmodulation of MHC-I molecules expressed on the surface of HIV infected SupT1 cells; conditions: read-out: EC50 for inhibition of MHC-I downmodulation utilizing the R1 parameter; SupT1 cells infected with HIV-1; compounds added 20 h after infection, 24 h incubation
[2] = test system: uninfected SupT1 cells; assay: Compound-induced toxicity, XTT cell viability assay; conditions: read-out: CC50 (concentration reducing cell viability by 50%), XTT method, 48 h, Tables 3 and 4

SMILES | EC50 [1] [nM] | CC50 [2] [nM]
CC1(C)Cc2cccc(CCC(=O)Nc3nc4ccccc4s3)c2O1 [Compound 108, N-(Benzo[d]thiazol-2-yl)-3-(2,2-dimethyl-2,3-dihydrobenzofuran-7-yl) propanamide] | 1370 | > 100000
Cc1ccccc1CCC(=O)N(C)c1nc2c(s1)CCCC2 [Compound 109, N-Methyl-N-(4,5,6,7-tetrahydrobenzo[d]thiazol-2-yl)-3-(o-tolyl) propanamide] | 2100 | > 125000
